Where “and” joins values, the source holds several entries; their conditions need not be identical. Equal values may be shown once.

The record followed here is ChEMBL document CHEMBL3044731, “Insecticidal Effects of Organotin(IV) Compounds on Plutella Xylostella (L.) Larvae. II. Inhibitory Potencies Against Acetylcholinesterase and Evidence for Synergism in Tests With Bacillus Thuringiensis(BER.) and Malathion” (Met Based Drugs, 1994).

The first test deals with Plutella xylostella. The test can be described thus: Insecticidal activity against drug-resistant Plutella xylostella (diamondback moth) fourth-instar larvae exposed to compound through topical application followed by transfer onto fresh Brassica leaves assessed as insect mortality measured 48 hr post compound application. It is filed as functional.
Details: not given
Turning to TRIPHENYLSTANNYL ACETATE, the LD50 was 6.06 ×10⁻³ mol/L.
For “triphenylstannyl 4-(2-carbamoylhydrazono)pentanoate”, the LD50 is 2.22 ×10⁻³ mol/L.
Still for that read-out and setting: next, “TRIPHENYLSTANNYL 2-(PHENYLCARBAMOYLTHIO)ACETATE”: 1.5 ×10⁻³ mol/L.
Same read-out and setting: next, “5-(triphenylstannylthio)-1,3,4-thiadiazol-2-amine”: 2.31 ×10⁻³ mol/L; “triphenylstannyl 2-(4-nitrophenoxy)acetate”: 4.38 ×10⁻³ mol/L; “TRIPHENYLSTANNYL 2-([sequence])ACETATE HYDRATE”: 24 ×10⁻³ mol/L.
Still for that read-out and setting: the result for “4-(2-oxo-2-(triphenylstannyloxy)ethoxy)benzoic acid” reads 0.69 ×10⁻³ mol/L.
Regarding TRIPHENYLSTANNYL 2-([sequence])BENZOATE, the LD50 was 2.06 ×10⁻³ mol/L.
The same measure, in the same setting: next, “tricyclohexylstannyl 2-(piperidine-1-carbonothioylthio)acetate”: 0.18 ×10⁻³ mol/L; “(4-chlorophenyl)diphenylstannyl 2-(dimethylcarbamothioylthio)acetate”: 2.36 ×10⁻³ mol/L; “triphenylstannyl 2-(4-chlorophenoxy)acetate”: 2.26 ×10⁻³ mol/L.
On the same count and under the same terms, next, “1-(tricyclopentylstannyl)-1H-1,2,4-triazole”: 0.27 ×10⁻³ mol/L; “1-(cyclopentyldiphenylstannyl)-1H-1,2,4-triazole”: 7.85 ×10⁻³ mol/L; DICYCLOPENTYL(PHENYL)STANNANOL: 3.7 ×10⁻³ mol/L.
Regarding METHYL TRIPHENYLSTANNYL OXALATE, the LD50 was determined as 4.5 ×10⁻³ mol/L.
For “triphenylstannyl 4-oxo-4-phenylbutanoate”, the LD50 worked out at 1.84 ×10⁻³ mol/L.
On to `CCOC(=O)CC(SP(=S)(OC)OC)C(=O)OCC` (configuration not stated) [MALATHION], for which the LD50 stood at 42.6 ×10⁻³ mol/L.
Still for that read-out and setting: next, “1-(dicyclopentyl(phenyl)stannyl)-1H-1,2,4-triazole”: 2.37 ×10⁻³ mol/L; “tricyclohexylstannyl 2-(quinolin-8-yloxy)acetate”: 0.57 ×10⁻³ mol/L.
On to “triphenylstannyl 2-((2-isopropyl-5-methylcyclohexyloxy)carbonothioylthio)acetate”, for which the LD50 was found to be 3.62 ×10⁻³ mol/L.
“triphenylstannyl 2-(4-chlorophenylcarbamoylthio)acetate”: the LD50 was found to be 0.9 ×10⁻³ mol/L.
Still for that read-out and setting: the result for TRIPHENYLSTANNYL 2-([sequence])ACETATE reads 3.23 ×10⁻³ mol/L and 1.8 ×10⁻³ mol/L.
Same read-out and setting: the result for [sequence] 2-([sequence])ACETATE reads 1.78 ×10⁻³ mol/L.
Take “triphenylstannyl 2-(morpholine-4-carbonothioylthio)acetate”: the LD50 amounted to 1.66 ×10⁻³ mol/L.
For the molecule `CNC(=O)ON=C(C)SC` [METHOMYL], the LD50 was 1.43 ×10⁻³ mol/L.
For TRIPHENYLSTANNYL 4-OXOPENTANOATE, the LD50 stood at 6.95 ×10⁻³ mol/L.

Another test deals with T1, Acetylcholinesterase (Plutella xylostella, UniProt Q8MZM0). Put plainly: Inhibition of AChE in drug-resistant Plutella xylostella (diamondback moth) fourth-instar larvae homogenates using acetylthiocholine iodide substrate by colorimetric method. Conditions: read-out: I50.
T1 sequence (Q8MZM0 whole entry): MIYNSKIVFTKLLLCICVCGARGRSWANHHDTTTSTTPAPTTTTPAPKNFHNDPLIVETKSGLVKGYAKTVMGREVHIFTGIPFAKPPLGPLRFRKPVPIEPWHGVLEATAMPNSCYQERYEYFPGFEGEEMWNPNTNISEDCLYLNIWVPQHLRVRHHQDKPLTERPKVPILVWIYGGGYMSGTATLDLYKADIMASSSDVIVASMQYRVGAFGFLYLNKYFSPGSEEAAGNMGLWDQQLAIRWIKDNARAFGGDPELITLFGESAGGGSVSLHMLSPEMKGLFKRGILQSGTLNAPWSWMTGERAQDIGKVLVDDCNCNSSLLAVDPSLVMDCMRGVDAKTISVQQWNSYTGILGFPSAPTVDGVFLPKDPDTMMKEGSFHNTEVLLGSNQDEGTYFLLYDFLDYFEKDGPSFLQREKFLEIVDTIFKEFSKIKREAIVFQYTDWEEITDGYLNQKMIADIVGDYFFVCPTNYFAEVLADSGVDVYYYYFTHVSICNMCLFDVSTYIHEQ
Regarding “TRIPHENYLSTANNYL 2-(DIMETHYLCARBAMOYLTHIO)ACETATE”, the IC50 was found to be 13.1 mM.

For the next test, the target named is Acetylcholinesterase (Plutella xylostella) (UniProt Q8MZM0). The test can be described thus: Inhibition of AChE in drug-resistant Plutella xylostella (diamondback moth) fourth-instar larvae homogenates at 0.1 mM using acetylthiocholine iodide substrate by colorimetric method.
Sequence of Acetylcholinesterase (Plutella xylostella) (Q8MZM0 entry or part of it): as the sequence (Q8MZM0 whole entry) above
Details: not given
Broadly, the inhibition is the relative decrease from the control value, in per cent. A lower inhibition goes with little suppression. In turn, “triphenylstannyl 2-(2,4-dichlorophenylcarbamoylthio)acetate” showed an inhibition of 13.4%.
“TRIPHENYLSTANNYL 2-(PHENYLCARBAMOYLTHIO)ACETATE” came in with an inhibition of 31.1%.
Consider “S-triphenylstannyl piperidine-1-carbothioate”, for which the inhibition was 14.8%.
Still for that read-out and setting: the result for “triphenylstannyl 6-(piperidine-1-carbonylthio)hexanoate” reads 27%; that for “triphenylstannyl 2-(4-chlorophenylcarbamoylthio)acetate”, 74.6%; that for TRIPHENYLSTANNYL 2-([sequence])ACETATE, 27.6% and 31.8% and 42.1%.
Same read-out and setting: next, “triphenylstannyl 2-(piperidine-1-carbonylthio)acetate”: 24.4%.
The same measure, in the same setting: next, “(4-chlorophenyl)diphenylstannyl 2-(phenylcarbamoylthio)acetate”: 15.8%.

A further test has as its target T1, Acetylcholinesterase. Put plainly: Inhibition of AChE in drug-sensitive Plutella xylostella (diamondback moth) fourth-instar larvae homogenates using acetylthiocholine iodide substrate by colorimetric method. As to conditions: read-out: I50.
For the molecule “TRIPHENYLSTANNYL 2-(DIMETHYLCARBAMOTHIOYLTHIO)ACETATE”, the IC50 turned out to be 26.2 mM.
As for “TRIPHENYLSTANNYL 2-(DIMETHYLCARBAMOYLTHIO)ACETATE”, the IC50 is 0.00543 mM.
